Key:
[1] = system: SARS-CoV-2; parameters: method as in PMID 35352927; conditions: BALB/cAJcl mice; cited from earlier work
[2] = Treatment-emergent adverse events, multiple dose (part 2); assay type: in vivo, human; conditions: Japanese, n = 8
Description: In part 1, Japanese participants were randomized to receive placebo or single dose of ensitrelvir (20, 70, 250, 500, 1,000, and 2,000 mg given to cohorts A, B, C, D, E, and J, respectively), suspended in 0.5% methylcellulose, in the fasted state. Additionally, in cohort C, the effect of food on the pharmacokinetics of ensitrelvir was investigated in a 2-group, 2-period crossover design by administering placebo or ensitrelvir (250 mg) in the fasted or fed (high-fat/high-calorie) state. In part 2, Japanese participants were randomized to receive placebo or multiple doses of ensitrelvir, suspended in 0.5% methylcellulose. The multiple-dose regimens were as follows: once-daily doses of ensitrelvir 375 mg on day 1 and 125 mg on days 2 to 5 (cohort F), or 750 mg on day 1 and 250 mg on days 2 to 6 (cohort G) in the fasted state. White participants were randomized to receive placebo or multiple doses of ensitrelvir. The multiple-dose regimens were as follows: once-daily doses of ensitrelvir 375 mg on day 1 and 125 mg on days 2 to 5 (cohort H). Each cohort included 11 participants. In cohort G, the effect of ensitrelvir on the pharmacokinetics of midazolam (syrup) was evaluated in an open label self-controlled crossover design. Midazolam 2 mg alone was administered 2 days prior to initiating ensitrelvir administration (on day −2) and midazolam was coadministered on day 6 with placebo or ensitrelvir in the fasted state to participants following once-daily doses for 5 days of placebo (days 1 to 5) or ensitrelvir (750 mg on day 1 and 250 mg on days 2–5).
The nature, frequency, and severity of TEAEs were evaluated and recorded.

[3] = Cohort F 375/125 mg, listed as ensitrelvir
[4] = Cohort G 750/250 mg + midazolam

Question: For `Cn1cnc(Cn2c(=O)[nH]/c(=N\c3cc4cn(C)nc4cc3Cl)n(Cc3cc(F)c(F)cc3F)c2=O)n1` [Ensitrelvir, ensitrelvir fumaric acid], which “antiviral activity in mice” value [1] is on record?
Answer: dose-dependent antiviral activity

Question: And the “Abdominal pain, Events” value ([2]; Cohort F 375/125 mg)?
Answer: 0

Question: What about the “Abdominal pain, n (%)” value ([2]; Cohort F 375/125 mg) of the same compound?
Answer: 0

Question: What about the “Blood creatine phosphate increased, Events” value ([2]; Cohort F 375/125 mg) of the same compound?
Answer: 0

Question: And the “Blood creatine phosphate increased, n (%)” value ([2]; Cohort F 375/125 mg)?
Answer: 0

Question: And the “Blood triglyceride increased, Events” value ([2]; Cohort F 375/125 mg)?
Answer: 0

Question: And the “Blood triglyceride increased, n (%)” value ([2]; Cohort F 375/125 mg)?
Answer: 0

Question: And the “C-reactive protein increased, Events” value ([2]; Cohort F 375/125 mg)?
Answer: 0

Question: And the “C-reactive protein increased, n (%)” value ([2]; Cohort F 375/125 mg)?
Answer: 0

Question: And the “Diarrhea, Events” value ([2]; Cohort F 375/125 mg)?
Answer: 5

Question: And the “Diarrhea, n (%)” value ([2]; Cohort F 375/125 mg)?
Answer: 4 (50.0)

Question: What about the “Dizziness, Events” value ([2]; Cohort F 375/125 mg) of the same compound?
Answer: 0

Question: What about the “Dizziness, n (%)” value ([2]; Cohort F 375/125 mg) of the same compound?
Answer: 0

Question: What about the “Feeling hot, Events” value ([2]; Cohort F 375/125 mg) of the same compound?
Answer: 0

Question: What about the “Feeling hot, n (%)” value ([2]; Cohort F 375/125 mg) of the same compound?
Answer: 0

Question: And the “Gastrointestinal disorders, Events” value ([2]; Cohort F 375/125 mg)?
Answer: 5

Question: What about the “Gastrointestinal disorders, n (%)” value ([2]; Cohort F 375/125 mg) of the same compound?
Answer: 4 (50.0)

Question: What about the “General disorders and administration site conditions, Events” value ([2]; Cohort F 375/125 mg) of the same compound?
Answer: 0

Question: And the “General disorders and administration site conditions, n (%)” value ([2]; Cohort F 375/125 mg)?
Answer: 0

Question: What about the “Headache, Events” value ([2]; Cohort F 375/125 mg) of the same compound?
Answer: 0

Question: What about the “Headache, n (%)” value ([2]; Cohort F 375/125 mg) of the same compound?
Answer: 0

Question: What about the “High-density lipoprotein cholesterol decreased, Events” value ([2]; Cohort F 375/125 mg) of the same compound?
Answer: 7

Question: What about the “High-density lipoprotein cholesterol decreased, n (%)” value ([2]; Cohort F 375/125 mg) of the same compound?
Answer: 7 (87.5)

Question: And the “Investigations, Events” value ([2]; Cohort F 375/125 mg)?
Answer: 7

Question: What about the “Investigations, n (%)” value ([2]; Cohort F 375/125 mg) of the same compound?
Answer: 7 (87.5)

Question: And the “Nausea, Events” value ([2]; Cohort F 375/125 mg)?
Answer: 0

Question: And the “Nausea, n (%)” value ([2]; Cohort F 375/125 mg)?
Answer: 0

Question: And the “Nervous system disorders, Events” value ([2]; Cohort F 375/125 mg)?
Answer: 0

Question: What about the “Nervous system disorders, n (%)” value ([2]; Cohort F 375/125 mg) of the same compound?
Answer: 0

Question: And the “Oropharyngeal pain, Events” value ([2]; Cohort F 375/125 mg)?
Answer: 0

Question: What about the “Oropharyngeal pain, n (%)” value ([2]; Cohort F 375/125 mg) of the same compound?
Answer: 0

Question: What about the “Participants with any TEAE, Events” value ([2]; Cohort F 375/125 mg) of the same compound?
Answer: 12

Question: And the “Participants with any TEAE, n (%)” value ([2]; Cohort F 375/125 mg)?
Answer: 7 (87.5)

Question: What about the “Pyrexia, Events” value ([2]; Cohort F 375/125 mg) of the same compound?
Answer: 0

Question: What about the “Pyrexia, n (%)” value ([2]; Cohort F 375/125 mg) of the same compound?
Answer: 0

Question: What about the “Rash, Events” value ([2]; Cohort F 375/125 mg) of the same compound?
Answer: 0

Question: And the “Rash, n (%)” value ([2]; Cohort F 375/125 mg)?
Answer: 0

Question: What about the “Respiratory, thoracic, and mediastinal disorders, Events” value ([2]; Cohort F 375/125 mg) of the same compound?
Answer: 0

Question: And the “Respiratory, thoracic, and mediastinal disorders, n (%)” value ([2]; Cohort F 375/125 mg)?
Answer: 0

Question: And the “Skin and subcutaneous tissue disorders, Events” value ([2]; Cohort F 375/125 mg)?
Answer: 0

Question: What about the “Skin and subcutaneous tissue disorders, n (%)” value ([2]; Cohort F 375/125 mg) of the same compound?
Answer: 0

Question: And the “Somnolence, Events” value ([2]; Cohort F 375/125 mg)?
Answer: 0

Question: What about the “Somnolence, n (%)” value ([2]; Cohort F 375/125 mg) of the same compound?
Answer: 0

Question: And the “Vomiting, Events” value ([2]; Cohort F 375/125 mg)?
Answer: 0

Question: What about the “Vomiting, n (%)” value ([2]; Cohort F 375/125 mg) of the same compound?
Answer: 0

Question: What about the “Diarrhea, n (%)” value [2, 3] of the same compound?
Answer: 4/8

Question: What about the “High-density lipoprotein cholesterol decreased, n (%)” value [2, 3] of the same compound?
Answer: 7/8

Question: And the “Abdominal pain, Events” value [2, 4]?
Answer: 0

Question: And the “Abdominal pain, n (%)” value [2, 4]?
Answer: 0

Question: What about the “Blood creatine phosphate increased, Events” value [2, 4] of the same compound?
Answer: 1

Question: What about the “Blood creatine phosphate increased, n (%)” value [2, 4] of the same compound?
Answer: 1 (12.5)

Question: And the “Blood triglyceride increased, Events” value [2, 4]?
Answer: 2

Question: What about the “Blood triglyceride increased, n (%)” value [2, 4] of the same compound?
Answer: 2 (25.0)

Question: And the “C-reactive protein increased, Events” value [2, 4]?
Answer: 1

Question: What about the “C-reactive protein increased, n (%)” value [2, 4] of the same compound?
Answer: 1 (12.5)

Question: And the “Diarrhea, Events” value [2, 4]?
Answer: 6

Question: And the “Diarrhea, n (%)” value [2, 4]?
Answer: 4 (50.0)

Question: What about the “Dizziness, Events” value [2, 4] of the same compound?
Answer: 1

Question: What about the “Dizziness, n (%)” value [2, 4] of the same compound?
Answer: 1 (12.5)

Question: And the “Feeling hot, Events” value [2, 4]?
Answer: 1

Question: And the “Feeling hot, n (%)” value [2, 4]?
Answer: 1 (12.5)

Question: And the “Gastrointestinal disorders, Events” value [2, 4]?
Answer: 8

Question: What about the “Gastrointestinal disorders, n (%)” value [2, 4] of the same compound?
Answer: 4 (50.0)

Question: And the “General disorders and administration site conditions, Events” value [2, 4]?
Answer: 2

Question: And the “General disorders and administration site conditions, n (%)” value [2, 4]?
Answer: 2 (25.0)

Question: And the “Headache, Events” value [2, 4]?
Answer: 6

Question: And the “Headache, n (%)” value [2, 4]?
Answer: 4 (50.0)

Question: What about the “High-density lipoprotein cholesterol decreased, Events” value [2, 4] of the same compound?
Answer: 7

Question: And the “High-density lipoprotein cholesterol decreased, n (%)” value [2, 4]?
Answer: 7 (87.5)

Question: And the “Investigations, Events” value [2, 4]?
Answer: 11

Question: What about the “Investigations, n (%)” value [2, 4] of the same compound?
Answer: 7 (87.5)

Source: article PMC9578392, “Safety, Tolerability, and Pharmacokinetics of the Novel Antiviral Agent Ensitrelvir Fumaric Acid, a SARS-CoV-2 3CL Protease Inhibitor, in Healthy Adults” (Antimicrobial Agents and Chemotherapy, 2022)
